Data reported in patent publication US20030003057A1, “Methods for administering leuprolide by inhalation” (priority 2000, published 2003).

Assay: clinical
Details: human, in vivo
From the text: Capsules were bottled and the bottles individually enclosed in an appropriately labeled sealed foil pouch with desiccant and stored at room temperature. […] Subjects were instructed to inhale deeply and forcefully while wearing nose clips. Inhalations were followed by a 5 second breath hold prior to exhalation. […] Leuprolide was supplied in multiple dose vials as a sterile aqueous solution for injection. […] The pH was adjusted with sodium hydroxide or acetic acid. Prior to administration, each vial was visually inspected for particulate matter or discoloration. The leuprolide vials were stored at room temperature. […] The injection was given in the opposite arm to that used for blood sample for pharmacokinetic assessments. There were 2 dosing visits, followed by a post study medical 3 to 14 days after the last dose. The interval between doses was no less than 7 days. […] [table] Relative bioavailability: The bioavailability (BA) of the leuprolide formulation delivered from Turbospin, relative to intravenous injection of leuprolide, was determined from the ratio of log-transformed AUC values, according to the following equation, Relative BA=(InAUCPulmoSphere/InAUCiv) * (nominal dosePulmoSphere/doseiv), […]

bioavailability: ~18%
SMILES: CCNC(=O)[C@@H]1CCCN1C(=O)[C@H](CCCNC(=N)N)NC(=O)[C@H](CC(C)C)NC(=O)[C@@H](CC(C)C)NC(=O)[C@H](Cc1ccc(O)cc1)NC(=O)[C@H](CO)NC(=O)[C@H](Cc1c[nH]c2ccccc12)NC(=O)[C@H](Cc1c[nH]cn1)NC(=O)[C@@H]1CCC(=O)N1 [leuprolide]
